{"source": "patent US12173135B2", "about": "“Plasticizer and plastic product” (LARGAN MEDICAL CO., LTD., priority 2019, dated 2024)", "test": "biodegradation tests (ASTM 5338) of the plasticizers", "description": "The biodegradation tests (ASTM 5338) of the plasticizers with different molecular structures are performed below. The comparison, the 29th Example and the 30th Example are tested, and the degrees of degradation under different days are listed in the following table.", "data": [{"smiles": "O=C(OCCOC(=O)c1ccccc1O)c1ccccc1O", "note": "[30th Example]", "values": [{"measurement": "Degree of Degradation (%)", "setting": "day 0", "result": 0, "unit": "%"}, {"measurement": "Degree of Degradation (%)", "setting": "day 3", "result": 3.21, "unit": "%"}, {"measurement": "Degree of Degradation (%)", "setting": "day 7", "result": 1.97, "unit": "%"}, {"measurement": "Degree of Degradation (%)", "setting": "day 12", "result": 1.09, "unit": "%"}, {"measurement": "Degree of Degradation (%)", "setting": "day 15", "result": 1.87, "unit": "%"}, {"measurement": "Degree of Degradation (%)", "setting": "day 19", "result": 4.13, "unit": "%"}, {"measurement": "Degree of Degradation (%)", "setting": "day 24", "result": 6.63, "unit": "%"}, {"measurement": "Degree of Degradation (%)", "setting": "day 28", "result": 13.13, "unit": "%"}, {"measurement": "Degree of Degradation (%)", "setting": "day 33", "result": 17.63, "unit": "%"}, {"measurement": "Degree of Degradation (%)", "setting": "day 36", "result": 26.70, "unit": "%"}, {"measurement": "Degree of Degradation (%)", "setting": "day 40", "result": 33.47, "unit": "%"}, {"measurement": "Degree of Degradation (%)", "setting": "day 45", "result": 38.10, "unit": "%"}, {"measurement": "Degree of Degradation (%)", "setting": "day 49", "result": 43.93, "unit": "%"}, {"measurement": "Degree of Degradation (%)", "setting": "day 54", "result": 47.28, "unit": "%"}, {"measurement": "Degree of Degradation (%)", "setting": "day 58", "result": 60.14, "unit": "%"}, {"measurement": "Degree of Degradation (%)", "setting": "day 63", "result": 67.90, "unit": "%"}, {"measurement": "Degree of Degradation (%)", "setting": "day 67", "result": 69.50, "unit": "%"}, {"measurement": "Degree of Degradation (%)", "setting": "day 71", "result": 71.37, "unit": "%"}, {"measurement": "Degree of Degradation (%)", "setting": "day 75", "result": 72.99, "unit": "%"}, {"measurement": "Degree of Degradation (%)", "setting": "day 81", "result": 73.19, "unit": "%"}, {"measurement": "Degree of Degradation (%)", "setting": "day 85", "result": 73.19, "unit": "%"}, {"measurement": "Degree of Degradation (%)", "setting": "day 89", "result": 73.53, "unit": "%"}, {"measurement": "Degree of Degradation (%)", "setting": "day 93", "result": 78.89, "unit": "%"}, {"measurement": "Degree of Degradation (%)", "setting": "day 98", "result": 78.51, "unit": "%"}, {"measurement": "Degree of Degradation (%)", "setting": "day 102", "result": 78.14, "unit": "%"}, {"measurement": "Degree of Degradation (%)", "setting": "day 105", "result": 78.50, "unit": "%"}, {"measurement": "Degree of Degradation (%)", "setting": "day 109", "result": 81.63, "unit": "%"}, {"measurement": "Degree of Degradation (%)", "setting": "day 114", "result": 81.09, "unit": "%"}, {"measurement": "Degree of Degradation (%)", "setting": "day 118", "result": 84.55, "unit": "%"}, {"measurement": "Degree of Degradation (%)", "setting": "day 124", "result": 84.55, "unit": "%"}, {"measurement": "Degree of Degradation (%)", "setting": "day 128", "result": 86.04, "unit": "%"}, {"measurement": "Degree of Degradation (%)", "setting": "day 132", "result": 86.55, "unit": "%"}, {"measurement": "Degree of Degradation (%)", "setting": "day 137", "result": 86.81, "unit": "%"}, {"measurement": "Degree of Degradation (%)", "setting": "day 140", "result": 86.58, "unit": "%"}, {"measurement": "Degree of Degradation (%)", "setting": "day 144", "result": 86.58, "unit": "%"}, {"measurement": "Degree of Degradation (%)", "setting": "day 147", "result": 87.69, "unit": "%"}, {"measurement": "Degree of Degradation (%)", "setting": "day 151", "result": 88.54, "unit": "%"}, {"measurement": "Degree of Degradation (%)", "setting": "day 155", "result": 88.54, "unit": "%"}, {"measurement": "Degree of Degradation (%)", "setting": "day 158", "result": 87.80, "unit": "%"}, {"measurement": "Degree of Degradation (%)", "setting": "day 161", "result": 87.80, "unit": "%"}, {"measurement": "Degree of Degradation (%)", "setting": "day 165", "result": 87.80, "unit": "%"}, {"measurement": "Degree of Degradation (%)", "setting": "day 168", "result": 88.40, "unit": "%"}, {"measurement": "Degree of Degradation (%)", "setting": "day 172", "result": 89.55, "unit": "%"}, {"measurement": "Degree of Degradation (%)", "setting": "day 175", "result": 89.91, "unit": "%"}, {"measurement": "Degree of Degradation (%)", "setting": "day 179", "result": 91.46, "unit": "%"}]}, {"smiles": "CCCCCCCCOC(=O)CC(N)C(=O)OCCCCCCCC", "note": "(racemic) [29th Example]", "values": [{"measurement": "Degree of Degradation (%)", "setting": "day 0", "result": 0, "unit": "%"}, {"measurement": "Degree of Degradation (%)", "setting": "day 3", "result": 6.70, "unit": "%"}, {"measurement": "Degree of Degradation (%)", "setting": "day 7", "result": 8.53, "unit": "%"}, {"measurement": "Degree of Degradation (%)", "setting": "day 12", "result": 20.53, "unit": "%"}, {"measurement": "Degree of Degradation (%)", "setting": "day 15", "result": 26.53, "unit": "%"}, {"measurement": "Degree of Degradation (%)", "setting": "day 19", "result": 35.22, "unit": "%"}, {"measurement": "Degree of Degradation (%)", "setting": "day 24", "result": 44.08, "unit": "%"}, {"measurement": "Degree of Degradation (%)", "setting": "day 28", "result": 48.75, "unit": "%"}, {"measurement": "Degree of Degradation (%)", "setting": "day 33", "result": 51.62, "unit": "%"}, {"measurement": "Degree of Degradation (%)", "setting": "day 36", "result": 53.72, "unit": "%"}, {"measurement": "Degree of Degradation (%)", "setting": "day 40", "result": 55.78, "unit": "%"}, {"measurement": "Degree of Degradation (%)", "setting": "day 45", "result": 57.19, "unit": "%"}, {"measurement": "Degree of Degradation (%)", "setting": "day 49", "result": 58.41, "unit": "%"}, {"measurement": "Degree of Degradation (%)", "setting": "day 54", "result": 59.35, "unit": "%"}, {"measurement": "Degree of Degradation (%)", "setting": "day 58", "result": 59.61, "unit": "%"}, {"measurement": "Degree of Degradation (%)", "setting": "day 63", "result": 59.85, "unit": "%"}, {"measurement": "Degree of Degradation (%)", "setting": "day 67", "result": 60.34, "unit": "%"}, {"measurement": "Degree of Degradation (%)", "setting": "day 71", "result": 62.58, "unit": "%"}, {"measurement": "Degree of Degradation (%)", "setting": "day 75", "result": 63.96, "unit": "%"}, {"measurement": "Degree of Degradation (%)", "setting": "day 81", "result": 63.75, "unit": "%"}, {"measurement": "Degree of Degradation (%)", "setting": "day 85", "result": 62.72, "unit": "%"}, {"measurement": "Degree of Degradation (%)", "setting": "day 89", "result": 64.14, "unit": "%"}, {"measurement": "Degree of Degradation (%)", "setting": "day 93", "result": 65.04, "unit": "%"}, {"measurement": "Degree of Degradation (%)", "setting": "day 98", "result": 65.04, "unit": "%"}, {"measurement": "Degree of Degradation (%)", "setting": "day 102", "result": 66.44, "unit": "%"}, {"measurement": "Degree of Degradation (%)", "setting": "day 105", "result": 66.44, "unit": "%"}, {"measurement": "Degree of Degradation (%)", "setting": "day 109", "result": 66.25, "unit": "%"}, {"measurement": "Degree of Degradation (%)", "setting": "day 114", "result": 66.04, "unit": "%"}, {"measurement": "Degree of Degradation (%)", "setting": "day 118", "result": 66.80, "unit": "%"}, {"measurement": "Degree of Degradation (%)", "setting": "day 124", "result": 66.80, "unit": "%"}, {"measurement": "Degree of Degradation (%)", "setting": "day 128", "result": 67.01, "unit": "%"}, {"measurement": "Degree of Degradation (%)", "setting": "day 132", "result": 66.81, "unit": "%"}, {"measurement": "Degree of Degradation (%)", "setting": "day 137", "result": 66.81, "unit": "%"}, {"measurement": "Degree of Degradation (%)", "setting": "day 140", "result": 66.81, "unit": "%"}, {"measurement": "Degree of Degradation (%)", "setting": "day 144", "result": 66.01, "unit": "%"}, {"measurement": "Degree of Degradation (%)", "setting": "day 147", "result": 64.81, "unit": "%"}, {"measurement": "Degree of Degradation (%)", "setting": "day 151", "result": 64.62, "unit": "%"}, {"measurement": "Degree of Degradation (%)", "setting": "day 155", "result": 64.23, "unit": "%"}, {"measurement": "Degree of Degradation (%)", "setting": "day 158", "result": 65.50, "unit": "%"}, {"measurement": "Degree of Degradation (%)", "setting": "day 161", "result": 66.30, "unit": "%"}, {"measurement": "Degree of Degradation (%)", "setting": "day 165", "result": 66.92, "unit": "%"}, {"measurement": "Degree of Degradation (%)", "setting": "day 168", "result": 65.84, "unit": "%"}, {"measurement": "Degree of Degradation (%)", "setting": "day 172", "result": 67.51, "unit": "%"}, {"measurement": "Degree of Degradation (%)", "setting": "day 175", "result": 69.97, "unit": "%"}, {"measurement": "Degree of Degradation (%)", "setting": "day 179", "result": 71.93, "unit": "%"}]}]}
